Source: paper PMC6147235 (iScience, 2018)

Tested on: WT OPS, G51A, T17M, P171Q, P180A
Assay: Subcellular localization
Type: cell-based, human
Settings: 10 µM all-trans retinal, P180A in COS-7 cells

CC1=C(/C=C/C(C)=C/C=C/C(C)=C/C=O)C(C)(C)CCC1 [all-trans retinal]
effect on subcellular localization (PCC and RetP1/1D4): no effect
